In brackets after ≈: the same amount, converted by molar mass.
Key:
[1] = test system: modified strains SKY54 and SKY197; assay: Yeast strain sensitivity to selected compounds (top-agar death zones / MIC), modified strains; assay type: cell-based, S. cerevisiae; settings: for change of sensitivity on induction of HXT9 and HXT11 expression: Gal/Raff containing media; for sensitivity relative to parental strains SKY48 and SKY191, based on the size of the death zones: YPD media, same concentration
Protocol: As used herein, “hyperpermeable” yeast cells or a “hyperpermeable” yeast strain, are yeast cells and strains which have an increased sensitivity to one or more test compounds, relative to the sensitivity of the yeast cells and strains without the above-described insertion-disruption of genes that alter cellular permeability. Sensitivity to such compounds and small molecules is determined by measuring the MIC (minimal inhibitory concentration) of such compounds to visible growth of yeast cells, disregarding a haze of barely visible growth of such yeast cells.
(§1) Decreasing concentrations of cycloheximide, 4-nitroquinolin-oxide, sulfmethuron methyl, and Zeocin were plated on parental yeast strains SKY48 and SKY191 and the modified yeast strains SKY54 and SKY197. From top to bottom of each plate, and from left to right of each row: 5 μg, 2.5 μg, 1 μg, 0.5 μg, 0.2 μg, and 50 ng of CYH; 2.5 μg, 1.25 μg, 0.5 μg, 0.25 μg, 0.1 μg, and 25 ng of NQO; 100 μg, 50 μg, 20 μg, 10 μg, 4 μg, and 1 μg of SMM; and 100 μg, 50 μg, 20 μg, 10 μg, 4 μg, and 1 μg of Zeo.
Yeast strain sensitivity to selected compounds SKY54 and SKY197 were tested for sensitivity to various concentrations of compounds, including cycloheximide (CYH), 4-nitroquinolin-oxide (NQO), sulfmethuron methyl (SMM) and Zeocin (Zeo), relative to the sensitivity of the parental strains, SKY48 and SKY191 to these compounds. Yeast cells were propagated on YPD or YPG/R plates in top-agar layer containing 1% of low melt SeaPlaque agarose and YPD or YPG/R growth media with glucose or galactose as the carbon source. CYH (5 mg/ml), NQO (2.5 mg/ml), SMM (100 mg/ml) and Zeo (100 mg/ml) stock solutions were diluted 2, 5, 10, 25, and 100-fold, and applied on top-agar growing yeast by means of prone device. Sensitivity to various concentrations of compounds was scored by visualization of growth on this media, and the size of “death zones” of sensitive colonies. Thus, the plates shown in FIG. 15 show the sensitivity of the parental and modified yeast strains to, from top to bottom of each plate, and from left to right of each row, 5 μg, 2.5 μg, 1 μg, 0.5 μg, 0.2 μg, and 50 ng of CYH; 2.5 μg, 1.25 μg, 0.5 μg, 0.25 μg, 0.1 μg, and 25 ng of NQO; 100 μg, 50 μg, 20 μg, 10 μg, 4 μg, and 1 μg of SMM; and 100 μg, 50 μg, 20 μg, 10 μg, 4 μg, and 1 μg of Zeo. […] When SKY54 and SKY197 were incubated on Gal/Raff containing media, thereby inducing expression of HXT9 and HXT11 genes, the sensitivity to CYH and 4-NQO increased. The estimated increase of death zone diameters for 4-NQO for SKY54 and SKY 197 on Gal/Raff media in comparison with the parental strains grown on the same media was ˜32-40%. After 48 hours of incubation on Gal/Raff media, sensitivity to CYH was estimated to be 0.01 μg/ml MIC (minimal inhibitory concentration). The MIC is defined as the lowest concentration (micrograms per milliliter of broth) that inhibited visible growth, disregarding a haze of barely visible growth. Sensitivity to CYH of a yeast strain harboring PDR1 and PDR3 deletions, and the HXT11 gene overexpressed from a multicopy plasmid, was previously reported as having an MIC of 0.03 μg/ml CYH (Nourani et al., 1997, Mol. Cell. Biol. 17:5453-5460). […] A comparative analysis of parental strain SKY48 and obtained SKY54 to 73,400 compounds from the SMT chemical library is shown in Table 2. SKY48 is sensitive to 1,959 compounds while SKY54 is sensitive to 3,011 compounds. Thus, SKY54 was sensitive to 154% as many compounds as the parental strain, SKY48.

[2] = test system: yeast strain harboring PDR1 and PDR3 deletions, and the HXT11 gene overexpressed from a multicopy plasmid; settings: previously reported, Nourani et al., 1997; cited from earlier work
[3] = test system: parental strains SKY48 and SKY191; assay: Yeast strain sensitivity to selected compounds (top-agar death zones), parental strains; assay type: cell-based, S. cerevisiae; settings: all concentrations tested (100 μg to 1 μg)
Protocol: as §1
SKY48 and SKY191 parental strains The parent strains SKY48 and SKY 191 (MATαtrp1 URA3 his3 lexAop-LEU2 cIop-LYS2), with 6 or 2 lexA operators upstream of LEU2, respectively, have been described (Serebriiskii et al., 1999, J. Biol. Chem. 274:17080-17087, which is incorporated herein by reference in its entirety).
Yeast strain sensitivity to selected compounds SKY54 and SKY197 were tested for sensitivity to various concentrations of compounds, including cycloheximide (CYH), 4-nitroquinolin-oxide (NQO), sulfmethuron methyl (SMM) and Zeocin (Zeo), relative to the sensitivity of the parental strains, SKY48 and SKY191 to these compounds. […] Sensitivity to various concentrations of compounds was scored by visualization of growth on this media, and the size of “death zones” of sensitive colonies. […]

| SMILES | change of sensitivity on induction of HXT9 and HXT11 expression [1] | estimated increase of death zone diameters in comparison with the parental strains ([1]; Gal/Raff media, parental strains grown on the same media) | sensitivity relative to parental strains SKY48 and SKY191, based on the size of the death zones [1] | MIC ([1]; Saccharomyces cerevisiae, SKY54ANDSKY197, 48 h, read-out: MIC (minimal inhibitory concentration)) | MIC [2] | sensitivity (growth, size of death zones) ([1]; SKY54 and SKY197, all concentrations tested (100 μg to 1 μg)) | sensitivity (growth, size of death zones) [3] |
| --- | --- | --- | --- | --- | --- | --- | --- |
| O=[N+]([O-])c1cc[n+]([O-])c2ccccc12 [4-NQO, 4-nitroquinolin-oxide] | increased | 32-40% | significantly more sensitive |  |  |  |  |
| C[C@@H]1C[C@@H]([C@H](O)CC2CC(=O)NC(=O)C2)C(=O)[C@@H](C)C1 [CYH, cycloheximide] | increased |  | significantly more sensitive | 0.01 µg/mL (≈ 0.0355 µM) | 0.03 µg/mL (≈ 0.107 µM) |  |  |
| COC(=O)c1ccccc1S(=O)(=O)NC(=O)Nc1nc(C)cc(C)n1 [SMM, sulfmethuron methyl] |  |  |  |  |  | no sensitivity | no sensitivity |

Reference: patent US6589773B1, “Methods and compositions for a modified yeast strain with increased permeability and uses thereof” (priority 2000, dated 2003)
